{
  "source": "paper PMC4522657",
  "about": "“Identification of a DYRK1A Inhibitor that Induces Degradation of the Target Kinase using Co-chaperone CDC37 fused with Luciferase nanoKAZ” (Scientific Reports, 2015)",
  "experiment_in_all_cases": "Kinase panel, CaNDY 1 µM",
  "format_in_all_cases": "biochemical",
  "details_in_all_cases": "CaNDY 1 µM relative to DMSO",
  "key": {"SPHK2": {"molecular_target": "T1, SPHK2 (Homo sapiens, UniProt Q9NRA0)", "T1 construct": "purchased Carna Biosciences", "description": "(§1) Detailed information on the assay conditions is available on the website of Carna Biosciences (http://www.carnabio.com/english/index.html; Kobe, Japan). In brief, full-length human recombinant kinases were expressed using a baculovirus expression system as amino-terminal GST-fusion proteins, and purified by glutathione-Sepharose chromatography. The GenBank accession numbers of DYRK1A, DYRK1B, DYRK2, and DYRK3 were NP_001387.2, NP_004705.1, NP_003574.1, and NP_003573.2. Kinase activities were evaluated by Off-chip Mobility Shift Assay after reaction of 1 μM of the substrate DYRKtide-F with ATP (25 μM for DYRK1A, 50 μM for DYRK1B, 10 μM for DYRK2, and 5 μM for DYRK3). For each compound, a DMSO solution was diluted in assay buffer to yield a final concentration of 1% DMSO. After incubation for one hour at room temperature, substrate phosphorylation was analyzed by electrophoretic separation of the substrate and products using a Caliper LC3000 platform (Caliper Life Sciences, Mountain View, CA, USA). The phosphorylated product (P)/(P + substrate) ratio was calculated at each concentration of each small molecule and the percent inhibition was expressed relative to a control assay in the absence of the small molecule. […] The IC50 of each compound was calculated by interpolation on a log-concentration-response curve fitted with a four-parameter logistic equation.\n(§2) All kinase assays were carried out at Carna Biosciences. The inhibitory map was made with Kinome Render[36]."}, "MRCKα": {"molecular_target": "T2, MRCKα (Homo sapiens, UniProt Q5VT25)", "T2 construct": "purchased Carna Biosciences", "description": "as §1, §2"}, "ROCK1": {"molecular_target": "T3, ROCK1 (Homo sapiens, UniProt Q13464)", "T3 construct": "purchased Carna Biosciences", "description": "as §1, §2"}, "FRK": {"molecular_target": "T4, FRK (Homo sapiens, UniProt P42685)", "T4 construct": "purchased Carna Biosciences", "description": "as §1, §2"}, "SLK": {"molecular_target": "T5, SLK (Homo sapiens, UniProt Q9H2G2)", "T5 construct": "purchased Carna Biosciences", "description": "as §1, §2"}, "HIPK4": {"molecular_target": "T6, HIPK4 (Homo sapiens, UniProt Q8NE63)", "T6 construct": "purchased Carna Biosciences", "description": "as §1, §2"}, "p38α": {"molecular_target": "T7, p38α (Homo sapiens, UniProt Q16539)", "T7 construct": "purchased Carna Biosciences", "description": "as §1, §2"}, "NDR1": {"molecular_target": "T8, NDR1 (Homo sapiens, UniProt Q15208)", "T8 construct": "purchased Carna Biosciences", "description": "as §1, §2"}, "WNK2": {"molecular_target": "T9, WNK2 (Homo sapiens, UniProt Q9Y3S1)", "T9 construct": "purchased Carna Biosciences", "description": "as §1, §2"}, "PLK3": {"molecular_target": "T10, PLK3 (Homo sapiens, UniProt Q9H4B4)", "T10 construct": "purchased Carna Biosciences", "description": "as §1, §2"}, "CDK2/CycA2": {"molecular_target": "T11, CDK2/CycA2 (Homo sapiens, UniProt P24941)", "T11 construct": "purchased Carna Biosciences", "description": "as §1, §2"}, "PKD3": {"molecular_target": "T12, PKD3 (Homo sapiens, UniProt O94806)", "T12 construct": "purchased Carna Biosciences", "description": "as §1, §2"}, "EPHA7": {"molecular_target": "T13, EPHA7 (Homo sapiens, UniProt Q15375)", "T13 construct": "purchased Carna Biosciences", "description": "as §1, §2"}, "SRPK2": {"molecular_target": "T14, SRPK2 (Homo sapiens, UniProt P78362)", "T14 construct": "purchased Carna Biosciences", "description": "as §1, §2"}, "EPHB1": {"molecular_target": "T15, EPHB1 (Homo sapiens, UniProt P54762)", "T15 construct": "purchased Carna Biosciences", "T15 sequence (P54762 18-984)": "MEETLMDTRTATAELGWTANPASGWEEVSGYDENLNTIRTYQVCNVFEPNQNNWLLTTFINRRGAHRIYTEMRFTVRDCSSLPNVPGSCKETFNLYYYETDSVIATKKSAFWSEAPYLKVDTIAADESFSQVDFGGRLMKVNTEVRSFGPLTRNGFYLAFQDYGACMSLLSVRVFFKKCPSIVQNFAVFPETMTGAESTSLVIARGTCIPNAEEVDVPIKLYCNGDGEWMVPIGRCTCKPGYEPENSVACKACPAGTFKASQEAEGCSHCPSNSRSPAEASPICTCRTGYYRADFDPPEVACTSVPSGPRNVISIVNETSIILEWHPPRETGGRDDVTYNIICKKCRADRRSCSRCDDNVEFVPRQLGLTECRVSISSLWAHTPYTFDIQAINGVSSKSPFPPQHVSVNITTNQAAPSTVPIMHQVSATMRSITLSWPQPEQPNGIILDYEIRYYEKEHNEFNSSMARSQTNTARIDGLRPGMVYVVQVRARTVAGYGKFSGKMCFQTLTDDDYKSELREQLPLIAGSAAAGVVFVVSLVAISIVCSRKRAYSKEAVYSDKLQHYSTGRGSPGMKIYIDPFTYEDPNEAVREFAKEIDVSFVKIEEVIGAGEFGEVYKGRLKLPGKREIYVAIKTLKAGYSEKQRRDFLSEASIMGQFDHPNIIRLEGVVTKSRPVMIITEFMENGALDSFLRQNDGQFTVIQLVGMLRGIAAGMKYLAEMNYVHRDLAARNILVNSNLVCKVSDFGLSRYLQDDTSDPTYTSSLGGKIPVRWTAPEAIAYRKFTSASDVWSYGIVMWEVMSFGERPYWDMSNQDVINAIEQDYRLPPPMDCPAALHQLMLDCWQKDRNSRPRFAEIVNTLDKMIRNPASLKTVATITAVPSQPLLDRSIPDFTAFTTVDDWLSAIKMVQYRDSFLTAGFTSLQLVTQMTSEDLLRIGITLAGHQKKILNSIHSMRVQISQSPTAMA", "description": "as §1, §2"}, "HIPK2": {"molecular_target": "T16, HIPK2 (Homo sapiens, UniProt Q9H2X6)", "T16 construct": "purchased Carna Biosciences", "description": "as §1, §2"}, "TSSK1": {"molecular_target": "T17, TSSK1 (Homo sapiens, UniProt Q9BXA7)", "T17 construct": "purchased Carna Biosciences", "description": "as §1, §2"}, "NEK2": {"molecular_target": "T18, NEK2 (Homo sapiens, UniProt P51955)", "T18 construct": "purchased Carna Biosciences", "description": "as §1, §2"}, "CK1ε": {"molecular_target": "T19, CK1ε (Homo sapiens, UniProt P49674)", "T19 construct": "purchased Carna Biosciences", "description": "as §1, §2"}, "AurC": {"molecular_target": "T20, AurC (Homo sapiens, UniProt Q9UQB9)", "T20 construct": "purchased Carna Biosciences", "description": "as §1, §2"}, "EPHA5": {"molecular_target": "T21, EPHA5 (Homo sapiens, UniProt P54756)", "T21 construct": "purchased Carna Biosciences", "T21 sequence (P54756 25-1037)": "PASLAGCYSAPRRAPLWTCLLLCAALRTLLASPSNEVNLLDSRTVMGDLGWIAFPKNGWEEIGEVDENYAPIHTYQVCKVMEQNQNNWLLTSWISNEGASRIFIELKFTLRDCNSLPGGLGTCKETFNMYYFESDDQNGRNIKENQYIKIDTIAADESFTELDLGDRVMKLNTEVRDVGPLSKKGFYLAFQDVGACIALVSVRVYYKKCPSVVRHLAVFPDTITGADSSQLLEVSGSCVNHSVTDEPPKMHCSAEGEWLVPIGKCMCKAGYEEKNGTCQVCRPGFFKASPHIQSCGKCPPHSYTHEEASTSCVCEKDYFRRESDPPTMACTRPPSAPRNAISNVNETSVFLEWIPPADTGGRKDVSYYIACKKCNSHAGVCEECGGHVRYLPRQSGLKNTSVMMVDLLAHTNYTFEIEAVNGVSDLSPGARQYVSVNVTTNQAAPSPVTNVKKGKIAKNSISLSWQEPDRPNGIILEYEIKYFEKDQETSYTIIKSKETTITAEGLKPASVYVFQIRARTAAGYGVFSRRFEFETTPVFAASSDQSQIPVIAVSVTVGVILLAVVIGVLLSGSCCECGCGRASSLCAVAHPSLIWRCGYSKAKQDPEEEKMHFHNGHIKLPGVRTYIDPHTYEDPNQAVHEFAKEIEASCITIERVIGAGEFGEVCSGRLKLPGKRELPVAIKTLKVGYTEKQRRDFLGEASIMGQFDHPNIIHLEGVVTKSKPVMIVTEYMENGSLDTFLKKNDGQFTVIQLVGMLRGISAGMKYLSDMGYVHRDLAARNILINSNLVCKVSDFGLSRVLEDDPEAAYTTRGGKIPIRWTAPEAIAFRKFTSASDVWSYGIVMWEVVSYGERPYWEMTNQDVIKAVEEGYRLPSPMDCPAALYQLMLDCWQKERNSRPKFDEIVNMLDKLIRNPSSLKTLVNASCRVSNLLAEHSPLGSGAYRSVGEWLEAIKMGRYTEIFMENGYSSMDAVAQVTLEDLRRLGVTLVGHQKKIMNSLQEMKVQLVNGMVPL", "description": "as §1, §2"}, "HIPK3": {"molecular_target": "T22, HIPK3 (Homo sapiens, UniProt Q9H422)", "T22 construct": "purchased Carna Biosciences", "description": "as §1, §2"}, "RET(M918T)": {"molecular_target": "T23, RET(M918T) (Homo sapiens, UniProt P07949, M918T)", "T23 construct": "purchased Carna Biosciences", "description": "as §1, §2"}, "EPHA6": {"molecular_target": "T24, EPHA6 (Homo sapiens, UniProt Q9UF33)", "T24 construct": "purchased Carna Biosciences", "description": "as §1, §2"}, "PKD2": {"molecular_target": "T25, PKD2 (Homo sapiens, UniProt Q9BZL6)", "T25 construct": "purchased Carna Biosciences", "description": "as §1, §2"}, "ALK": {"molecular_target": "T26, ALK (Homo sapiens, UniProt Q9UM73)", "T26 construct": "purchased Carna Biosciences", "T26 sequence (Q9UM73 19-1620)": "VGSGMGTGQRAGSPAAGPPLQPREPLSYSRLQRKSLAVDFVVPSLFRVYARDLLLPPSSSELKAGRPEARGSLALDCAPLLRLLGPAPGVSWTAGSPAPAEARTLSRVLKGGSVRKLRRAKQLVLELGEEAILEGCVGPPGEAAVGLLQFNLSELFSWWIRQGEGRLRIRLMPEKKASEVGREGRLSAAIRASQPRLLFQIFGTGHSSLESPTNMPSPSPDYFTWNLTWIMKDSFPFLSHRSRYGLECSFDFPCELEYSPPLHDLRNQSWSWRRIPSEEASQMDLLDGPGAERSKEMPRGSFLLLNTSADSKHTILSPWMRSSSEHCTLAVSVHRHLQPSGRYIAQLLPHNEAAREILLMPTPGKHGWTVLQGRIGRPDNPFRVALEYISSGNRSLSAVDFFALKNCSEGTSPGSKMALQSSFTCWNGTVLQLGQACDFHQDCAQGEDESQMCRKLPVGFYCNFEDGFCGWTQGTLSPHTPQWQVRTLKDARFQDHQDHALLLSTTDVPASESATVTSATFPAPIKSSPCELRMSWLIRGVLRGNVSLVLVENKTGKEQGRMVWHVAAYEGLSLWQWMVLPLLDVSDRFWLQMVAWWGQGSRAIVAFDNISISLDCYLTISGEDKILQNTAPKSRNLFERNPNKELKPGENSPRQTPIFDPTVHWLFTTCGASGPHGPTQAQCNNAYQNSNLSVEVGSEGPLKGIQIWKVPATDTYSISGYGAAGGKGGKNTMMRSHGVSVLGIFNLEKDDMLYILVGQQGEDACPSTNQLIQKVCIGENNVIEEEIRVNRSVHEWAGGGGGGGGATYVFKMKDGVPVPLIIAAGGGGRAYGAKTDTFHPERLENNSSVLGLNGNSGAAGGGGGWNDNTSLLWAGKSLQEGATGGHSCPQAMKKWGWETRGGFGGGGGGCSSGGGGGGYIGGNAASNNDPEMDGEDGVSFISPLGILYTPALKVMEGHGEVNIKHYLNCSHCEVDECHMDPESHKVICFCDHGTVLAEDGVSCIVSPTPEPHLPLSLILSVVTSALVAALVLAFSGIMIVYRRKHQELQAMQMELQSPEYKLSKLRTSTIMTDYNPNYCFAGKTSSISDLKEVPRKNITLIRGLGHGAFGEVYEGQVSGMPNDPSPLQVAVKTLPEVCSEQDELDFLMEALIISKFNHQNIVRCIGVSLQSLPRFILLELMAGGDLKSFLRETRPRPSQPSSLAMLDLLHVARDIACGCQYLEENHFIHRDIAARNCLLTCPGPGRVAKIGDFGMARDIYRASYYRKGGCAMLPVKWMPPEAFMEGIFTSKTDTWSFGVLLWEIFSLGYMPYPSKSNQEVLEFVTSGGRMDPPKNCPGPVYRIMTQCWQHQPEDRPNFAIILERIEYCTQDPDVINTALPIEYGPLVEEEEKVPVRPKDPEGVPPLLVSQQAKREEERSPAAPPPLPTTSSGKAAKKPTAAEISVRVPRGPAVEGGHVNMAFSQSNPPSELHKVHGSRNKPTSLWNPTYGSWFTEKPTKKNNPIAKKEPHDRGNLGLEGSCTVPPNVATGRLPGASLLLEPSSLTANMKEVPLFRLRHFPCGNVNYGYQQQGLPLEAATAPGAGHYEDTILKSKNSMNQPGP", "description": "as §1, §2"}, "NEK4": {"molecular_target": "T27, NEK4 (Homo sapiens, UniProt P51957)", "T27 construct": "purchased Carna Biosciences", "description": "as §1, §2"}, "EPHB2": {"molecular_target": "T28, EPHB2 (Homo sapiens, UniProt P29323)", "T28 construct": "purchased Carna Biosciences", "description": "as §1, §2"}, "BTK": {"molecular_target": "T29, BTK (Homo sapiens, UniProt Q06187)", "T29 construct": "purchased Carna Biosciences", "description": "as §1, §2"}, "AurA/TPX2": {"molecular_target": "T30, AurA/TPX2 (Homo sapiens, UniProt O14965)", "T30 construct": "purchased Carna Biosciences", "description": "as §1, §2"}, "NuaK2": {"molecular_target": "T31, NuaK2 (Homo sapiens, UniProt Q9H093)", "T31 construct": "purchased Carna Biosciences", "description": "as §1, §2"}, "MET(Y1235D)": {"molecular_target": "T32, MET(Y1235D) (Homo sapiens, UniProt P08581, Y1235D)", "T32 construct": "purchased Carna Biosciences", "description": "as §1, §2"}, "MARK2": {"molecular_target": "T33, MARK2 (Homo sapiens, UniProt Q7KZI7)", "T33 construct": "purchased Carna Biosciences", "description": "as §1, §2"}, "JAK2": {"molecular_target": "T34, JAK2 (Homo sapiens, UniProt O60674)", "T34 construct": "purchased Carna Biosciences", "description": "as §1, §2"}, "GSK3β": {"molecular_target": "T35, GSK3β (Homo sapiens, UniProt P49841)", "T35 construct": "purchased Carna Biosciences", "T35 sequence (P49841 whole entry)": "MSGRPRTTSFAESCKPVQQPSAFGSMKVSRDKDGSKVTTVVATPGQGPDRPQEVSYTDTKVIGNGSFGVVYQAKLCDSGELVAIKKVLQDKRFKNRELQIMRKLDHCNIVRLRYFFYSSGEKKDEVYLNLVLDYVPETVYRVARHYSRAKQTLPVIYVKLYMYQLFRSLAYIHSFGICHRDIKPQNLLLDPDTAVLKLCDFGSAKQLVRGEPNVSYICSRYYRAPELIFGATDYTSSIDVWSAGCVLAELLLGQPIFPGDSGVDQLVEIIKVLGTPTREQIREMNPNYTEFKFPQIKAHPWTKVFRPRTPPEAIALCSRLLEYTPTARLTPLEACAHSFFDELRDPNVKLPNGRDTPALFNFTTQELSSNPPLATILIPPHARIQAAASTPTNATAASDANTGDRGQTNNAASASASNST", "description": "as §1, §2"}, "PDGFRα": {"molecular_target": "T36, PDGFRα (Homo sapiens, UniProt P16234)", "T36 construct": "purchased Carna Biosciences", "T36 sequence (P16234 24-1089)": "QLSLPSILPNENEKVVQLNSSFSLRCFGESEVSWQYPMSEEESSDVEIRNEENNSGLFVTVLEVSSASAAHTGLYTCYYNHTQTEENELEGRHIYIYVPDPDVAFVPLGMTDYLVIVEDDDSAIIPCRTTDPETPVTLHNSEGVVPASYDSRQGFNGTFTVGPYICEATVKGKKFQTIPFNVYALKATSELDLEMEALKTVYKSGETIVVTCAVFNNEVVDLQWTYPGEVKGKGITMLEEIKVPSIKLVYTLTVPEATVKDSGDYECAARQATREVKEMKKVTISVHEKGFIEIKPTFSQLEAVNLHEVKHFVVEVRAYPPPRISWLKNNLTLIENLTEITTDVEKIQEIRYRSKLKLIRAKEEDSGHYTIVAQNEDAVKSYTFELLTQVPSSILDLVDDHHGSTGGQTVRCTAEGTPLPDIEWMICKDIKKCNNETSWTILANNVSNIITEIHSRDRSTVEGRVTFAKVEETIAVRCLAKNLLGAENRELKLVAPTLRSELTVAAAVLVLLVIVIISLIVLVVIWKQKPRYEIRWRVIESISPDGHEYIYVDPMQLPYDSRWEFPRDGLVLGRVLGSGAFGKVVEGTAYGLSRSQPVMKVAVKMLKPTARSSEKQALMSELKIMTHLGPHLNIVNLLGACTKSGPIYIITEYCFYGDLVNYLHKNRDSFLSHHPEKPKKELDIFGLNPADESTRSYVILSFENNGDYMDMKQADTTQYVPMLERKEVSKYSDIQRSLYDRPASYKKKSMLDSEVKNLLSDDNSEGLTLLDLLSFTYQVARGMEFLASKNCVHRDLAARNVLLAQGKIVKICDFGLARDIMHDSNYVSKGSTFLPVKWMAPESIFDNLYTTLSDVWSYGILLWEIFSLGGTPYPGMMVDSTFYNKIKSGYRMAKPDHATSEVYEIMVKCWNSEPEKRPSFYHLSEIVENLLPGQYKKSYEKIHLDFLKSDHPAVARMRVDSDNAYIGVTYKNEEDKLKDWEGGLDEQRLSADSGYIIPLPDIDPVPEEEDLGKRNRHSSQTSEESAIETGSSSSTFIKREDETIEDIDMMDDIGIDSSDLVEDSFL", "description": "as §1, §2"}},
  "data": [
    {"smiles": "[H]/N=C1/NC(=O)C(=Cc2ccc3c(c2)CCO3)S1", "note": "[CaNDY, (Z)-5-[(2,3-dihydrobenzofuran-5-yl)methylene]-2-iminothiazolidin-4-one]", "values": [
      {"measurement": "remaining activity at 1 µM", "setting": "SPHK2", "value": 92.3, "unit": "%"},
      {"measurement": "remaining activity at 1 µM", "setting": "MRCKα", "value": 128, "unit": "%"},
      {"measurement": "remaining activity at 1 µM", "setting": "ROCK1", "value": 92.5, "unit": "%"},
      {"measurement": "remaining activity at 1 µM", "setting": "FRK", "value": 102, "unit": "%"},
      {"measurement": "remaining activity at 1 µM", "setting": "SLK", "value": 96.9, "unit": "%"},
      {"measurement": "remaining activity at 1 µM", "setting": "HIPK4", "value": 78.2, "unit": "%"},
      {"measurement": "%Activity", "setting": "p38α", "value": 95.9, "unit": "%"},
      {"measurement": "remaining activity at 1 µM", "setting": "NDR1", "value": 91.8, "unit": "%"},
      {"measurement": "remaining activity at 1 µM", "setting": "WNK2", "value": 101, "unit": "%"},
      {"measurement": "remaining activity at 1 µM", "setting": "PLK3", "value": 95.9, "unit": "%"},
      {"measurement": "%Activity", "setting": "CDK2/CycA2", "value": 86.3, "unit": "%"},
      {"measurement": "remaining activity at 1 µM", "setting": "PKD3", "value": 85.9, "unit": "%"},
      {"measurement": "remaining activity at 1 µM", "setting": "EPHA7", "value": 97.6, "unit": "%"},
      {"measurement": "remaining activity at 1 µM", "setting": "SRPK2", "value": 96.6, "unit": "%"},
      {"measurement": "remaining activity at 1 µM", "setting": "EPHB1", "value": 95.3, "unit": "%"},
      {"measurement": "remaining activity at 1 µM", "setting": "HIPK2", "value": 22.6, "unit": "%"},
      {"measurement": "remaining activity at 1 µM", "setting": "TSSK1", "value": 94.5, "unit": "%"},
      {"measurement": "remaining activity at 1 µM", "setting": "NEK2", "value": 95.3, "unit": "%"},
      {"measurement": "remaining activity at 1 µM", "setting": "CK1ε", "value": 89.4, "unit": "%"},
      {"measurement": "remaining activity at 1 µM", "setting": "AurC", "value": 97, "unit": "%"},
      {"measurement": "%Activity", "setting": "EPHA5", "value": 100.1, "unit": "%"},
      {"measurement": "remaining activity at 1 µM", "setting": "HIPK3", "value": 22.4, "unit": "%"},
      {"measurement": "remaining activity at 1 µM", "setting": "RET(M918T)", "value": 102, "unit": "%"},
      {"measurement": "remaining activity at 1 µM", "setting": "EPHA6", "value": 96.8, "unit": "%"},
      {"measurement": "remaining activity at 1 µM", "setting": "PKD2", "value": 83.3, "unit": "%"},
      {"measurement": "remaining activity at 1 µM", "setting": "ALK", "value": 98.7, "unit": "%"},
      {"measurement": "remaining activity at 1 µM", "setting": "NEK4", "value": 86.2, "unit": "%"},
      {"measurement": "%Activity", "setting": "EPHB2", "value": 99.8, "unit": "%"},
      {"measurement": "%Activity", "setting": "BTK", "value": 85.7, "unit": "%"},
      {"measurement": "remaining activity at 1 µM", "setting": "AurA/TPX2", "value": 98.8, "unit": "%"},
      {"measurement": "%Activity", "setting": "NuaK2", "value": 98.1, "unit": "%"},
      {"measurement": "%Activity", "setting": "MET(Y1235D)", "value": 99.0, "unit": "%"},
      {"measurement": "remaining activity at 1 µM", "setting": "MARK2", "value": 97.5, "unit": "%"},
      {"measurement": "%Activity", "setting": "JAK2", "value": 100.3, "unit": "%"},
      {"measurement": "remaining activity at 1 µM", "setting": "GSK3β", "value": 74.1, "unit": "%"},
      {"measurement": "remaining activity at 1 µM", "setting": "PDGFRα", "value": 84.1, "unit": "%"}
    ]}
  ]
}
